The target of assay [1] is human recombinant IRAK4 protein (Homo sapiens (Human), UniProt Q9NWZ3). In words: IRAK4 enzyme assay (mass spectrometry readout). It counts as biochemical. To be noted: 3 mM ATP, 0.2 nM enzyme; geometric mean of at least n=2, * single experiment. The procedure: Potency of IRAK4 Inhibitor Compounds in IRAK4 Enzyme Assay
The inhibitory activity of compounds against IRAK4 were determined in an enzymatic assay using mass spectrometry readout. Ten point half-log compound concentration response curves, with a top concentration of 1 μM or 10 μM, were generated from 10 mM stocks of compound solubilized in DMSO using an Echo 655 (Labcyte Inc) and added to 384 well assay plates (Greiner #781280). To the assay plates, 10 μL of human recombinant IRAK4 protein (Life Technologies #PV4002) diluted to a final concentration of 0.2 nM in assay buffer (50 mM Tris-HCl pH 7.4, 10 mM MgCl, 5 mM glutathione, 0.01% BSA, 3 mM ATP) was added. The enzyme was incubated with the compounds at room temperature for 15 minutes before a peptide substrate ([…], Innovagen custom synthesis, 10 mM in DMSO) was added to each well to a final concentration of 10 μM using an Echo 655 (Labcyte Inc). After two hours at room temperature, the reaction was stopped with 90 μL of 0.4% formic acid (Merck #33015). The unphosphorylated and phosphorylated peptide were measured by LC-MS/MS on a Waters TQ-S mass spectrometer. Peaks were integrated using the TargetLynx software and the ratios between phosphorylated and unphosphorylated peptides were calculated. Curves were fitted and compound potencies determined in Genedata Screener 15 (Genedata AG). Data presented are the geometric mean of at least n=2, or as denoted by an * are obtained from a single experiment.

Assay [2] addresses IRAK4 auto-phosphorylation (Homo sapiens (Human), UniProt Q9NWZ3). In words: IRAK4 phosphorylation cell assay in IL-1β-stimulated Karpas-299 cells. The assay is classed as cell-based. To be noted: IL-1β 22.7 ng/mL, pIRAK4 (Thr345/Ser346), geometric mean of at least 2 experiments. The procedure:
IRAK4 Phosphorylation Cell Assay
The activation of IRAK4 by TLR or IL-1R ligands leads to IRAK4 auto-phosphorylation, which can be prevented by IRAK4 kinase inhibitors. The effect of IRAK4 inhibitor compounds on IRAK4 auto-phosphorylation was assessed in IL-1β-stimulated Karpas-299 cells as a measurement of cellular potency. Karpas-299 cells were cultured in RPMI 1640 (Gibco 61870-010) containing 10% FBS (Gibco #10270). Cells were plated at 2×10^4 cells per well in poly-D-lysine coated 384 well plates (Corning #356663) to which compounds had been added at various concentrations (10 point half log dose response with a final top concentration of 30 μM) using an Echo 655 (Labcyte Inc). Cells were centrifuged (250 g, 4 mins), incubated at 37° C. for 1 h, then stimulated with 22.7 ng/mL recombinant IL-1β (R&D Systems, #201-LB-025) at 37° C. for 10 mins, followed by fixation in 4% paraformaldehyde for 10 mins and permeabilization in ice-cold 70% MeOH for 30 mins. Cells were washed twice with phosphate-buffered saline (PBS) on a BlueWasher (BlueCatBio) then blocked with PBS containing 10% FBS for 20 mins. Blocking solution was removed with a BlueWasher and cells were stained with anti-pIRAK4 (Thr345/Ser346) (CST, #11927, 1:400) in blocking buffer with 0.05% Tween-20 for 1 h, then washed twice with PBS containing 0.05% Tween-20 on a BlueWasher, followed by staining with a Alexa 647-conjugated secondary anti-rabbit IgG antibody (CST, #4414, 1:2,000) and Hoechst 33342 (Sigma, 1:2,000) in blocking buffer with 0.05% Tween-20 for 30 mins. Finally, the cells were washed twice with PBS containing 0.05% Tween-20 and imaged on an ImageXpress Micro (Molecular Devices) with a 10× air objective using the appropriate filters. Images were analysed in Columbus (PerkinElmer) and the fluorescence intensity per cell from the secondary antibody was quantified. The quantified data were analysed in Genedata Screener 15 (Genedata AG). […] IC50 values are the geometric mean of at least 2 experiments.

human recombinant IRAK4 protein, sequence (Q9NWZ3 whole entry): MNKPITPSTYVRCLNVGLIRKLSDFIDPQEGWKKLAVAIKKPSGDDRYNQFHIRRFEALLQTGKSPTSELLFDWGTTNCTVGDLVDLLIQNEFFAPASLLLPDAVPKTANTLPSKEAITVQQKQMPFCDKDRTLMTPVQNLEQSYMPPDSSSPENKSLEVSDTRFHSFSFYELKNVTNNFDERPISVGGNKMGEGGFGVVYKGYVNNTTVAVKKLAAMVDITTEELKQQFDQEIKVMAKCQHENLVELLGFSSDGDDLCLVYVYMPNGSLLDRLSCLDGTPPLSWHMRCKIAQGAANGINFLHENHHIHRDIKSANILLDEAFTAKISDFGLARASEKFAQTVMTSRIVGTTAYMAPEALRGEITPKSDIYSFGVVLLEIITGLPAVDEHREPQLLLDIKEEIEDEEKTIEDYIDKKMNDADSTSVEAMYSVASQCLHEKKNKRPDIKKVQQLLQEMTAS
IRAK4 auto-phosphorylation, sequence (Q9NWZ3 whole entry): as above

Consider `COc1cc2nn(C3CCC4(CC3)CC(C)(O)C4)cc2cc1C(=O)Nc1cnc2cccnn12` (single isomer, unassigned) [Example 6, 2-(2-Hydroxy-2-methylspiro[3.5]nonan-7-yl)-N-(imidazo[1,2-b]pyridazin-3-yl)-6-methoxy-2H-indazole-5-carboxamide], for which the half-maximal inhibitory concentration (IC50) (commonly the point on the concentration scale where inhibition reaches its midpoint) in assay [1] came out at 0.7 nM; in assay [2] it was 44 nM.
Turning to `COc1cc2nn([C@H]3CCC[C@@H](O)C3)cc2cc1C(=O)Nc1cnc2cccnn12` (single isomer, unassigned) [Example 9], the figures for the 50% inhibitory concentration (IC50) in assay [1] and in assay [2] were 1.6 nM and 57 nM, respectively.
`CC1(O)CC2(CCC(n3cc4cc(C(=O)Nc5cnn6cccnc56)c(OC5CC5)cc4n3)CC2)C1` (single isomer, unassigned) [Example 15, 6-Cyclopropoxy-2-(2-hydroxy-2-methylspiro[3.5]nonan-7-yl)-N-(pyrazolo[1,5-a]pyrimidin-3-yl)-2H-indazole-5-carboxamide]: the IC50 is 0.5 nM in assay [1] and 91 nM in assay [2].
Turning to `CC1(O)CC2(CCC(n3cc4cc(C(=O)Nc5cnn6cccnc56)c(OC5CC5)cc4n3)CC2)C1` (single isomer, unassigned) [Example 16, 6-Cyclopropoxy-2-(2-hydroxy-2-methylspiro[3.5]nonan-7-yl)-N-(pyrazolo[1,5-a]pyrimidin-3-yl)-2H-indazole-5-carboxamide], the IC50 was 0.6 nM in assay [1] and 77 nM in assay [2].
On the same counts, the results for `CC(=O)N1CC2(CC[C@@H](n3cc4cc(C(=O)Nc5cnn6cccnc56)c(OC5CC5)cc4n3)[C@H](C)C2)C1` (single isomer, unassigned) [Example 28] are 3 nM and 161 nM.
Consider `COc1cc2nn([C@H]3CCC(N(C)C(C)=O)C[C@@H]3C)cc2cc1C(=O)Nc1cnc2cccnn12` (single isomer, unassigned) [Example 35, N-(imidazo[1,2-b]pyridazin-3-yl)-6-methoxy-2-((1S,2S,4R*)-2-methyl-4-(N-methylacetamido)cyclohexyl)-2H-indazole-5-carboxamide], for which the IC50 in assay [1] stood at 7.2 nM; in assay [2], 115 nM.
For `COc1cc2nn([C@@H]3CCC(N(C)C(C)=O)C[C@H]3C)cc2cc1C(=O)Nc1cnc2cccnn12` (single isomer, unassigned) [Example 36, N-(imidazo[1,2-b]pyridazin-3-yl)-6-methoxy-2-(1R,2R,4R*)-2-methyl-4-(N-methylacetamido)cyclohexyl)-2H-indazole-5-carboxamide], the IC50 in assay [1] is 3.8 nM; in assay [2], 56 nM.
Consider `COc1cc2nn([C@H]3CC[C@H](O)C[C@@H]3C)cc2cc1C(=O)Nc1cnn2cccnc12` (single isomer, unassigned) [Example 39], for which the IC50 in assay [1] is 10 nM; in assay [2], 160 nM.
On the same counts, the results for `C[C@H]1C[C@@H](O)CC[C@@H]1n1cc2cc(C(=O)Nc3cnn4cccnc34)c(OC3CC3)cc2n1` (single isomer, unassigned) [Example 44] are 0.8 nM and 42 nM.
For the compound `O=C(Nc1cnn2cccnc12)c1cc2cn(C3CCC4(CC3)CC(O)C4)nc2cc1OC1CC1` (single isomer, unassigned) [Example 46, 6-Cyclopropoxy-2-(2-hydroxyspiro[3.5]nonan-7-yl)-N-(pyrazolo[1,5-a]pyrimidin-3-yl)-2H-indazole-5-carboxamide], the IC50 turned out to be 0.6 nM in assay [1] and 56 nM in assay [2].
As to `O=C(Nc1cnn2cccnc12)c1cc2cn(C3CCC4(CC3)CC(O)C4)nc2cc1OC1CC1` (single isomer, unassigned) [Example 47, 6-Cyclopropoxy-2-(2-hydroxyspiro[3.5]nonan-7-yl)-N-(pyrazolo[1,5-a]pyrimidin-3-yl)-2H-indazole-5-carboxamide], the results for the 50% inhibitory concentration (IC50) in assay [1] and in assay [2] were 0.5 nM and 64 nM, respectively.
As for `COc1cc2nn(C3CCC(C)(O)CC3)cc2cc1C(=O)Nc1cnc2cccnn12` (single isomer, unassigned) [Example 48, 2-(4-Hydroxy-4-methylcyclohexyl)-N-(imidazo[1,2-b]pyridazin-3-yl)-6-methoxy-2H-indazole-5-carboxamide], the figures for the 50% inhibitory concentration (IC50) in assay [1] and in assay [2] were 0.7 nM and 17 nM, respectively.
Turning to `COc1cc2nn(C3CCC(C)(O)CC3)cc2cc1C(=O)Nc1cnc2cccnn12` (single isomer, unassigned) [Example 49, 2-(4-Hydroxy-4-methylcyclohexyl)-N-(imidazo[1,2-b]pyridazin-3-yl)-6-methoxy-2H-indazole-5-carboxamide], the IC50 came out at 6.1 nM in assay [1] and 46 nM in assay [2].
The matching figures for `COc1cc2nn([C@H]3CCC[C@@](C)(O)C3)cc2cc1C(=O)Nc1cnn2cccnc12` (single isomer, unassigned) [Example 50]: 3.4 nM and 84 nM.
For the compound `COc1cc2nn([C@H]3CCC[C@@](C)(O)C3)cc2cc1C(=O)Nc1cnn2cccnc12` (single isomer, unassigned) [Example 51], the results for the 50% inhibitory concentration (IC50) in assay [1] and in assay [2] were 2.8 nM and 46 nM, respectively.
On the same counts, the results for `COc1cc2nn([C@H]3CCC[C@](C)(O)C3)cc2cc1C(=O)Nc1cnn2cccnc12` (single isomer, unassigned) [Example 52] are 5.5 nM and 96 nM.
The matching figures for `COc1cc2nn([C@H]3CCC[C@](C)(O)C3)cc2cc1C(=O)Nc1cnn2cccnc12` (single isomer, unassigned) [Example 53]: 3.5 nM and 49 nM.
The matching figures for `COc1cc2nn([C@@H]3CCC(N(C)C(C)=O)C[C@H]3C)cc2cc1C(=O)Nc1cnn2cccnc12` (single isomer, unassigned) [Example 60]: 0.8 nM and 21 nM.
For `COc1cc2nn([C@@H]3CCC(N(C)C(C)=O)C[C@H]3C)cc2cc1C(=O)Nc1cnn2cccnc12` (single isomer, unassigned) [Example 61], the IC50 in assay [1] stood at 24.2 nM; in assay [2] it was 238 nM.
For the compound `COc1cc2nn([C@H]3CCC(N(C)C(C)=O)C[C@@H]3C)cc2cc1C(=O)Nc1cnn2cccnc12` (single isomer, unassigned) [Example 62, 6-methoxy-2-((1S,2S,4R*)-2-methyl-4-(N-methylacetamido)cyclohexyl)-N-(pyrazolo[1,5-a]pyrimidin-3-yl)-2H-indazole-5-carboxamide], the results for the IC50 in assay [1] and in assay [2] were 16 nM and 185 nM, respectively.
Turning to `COc1cc2nn([C@H]3CCC(N(C)C(C)=O)C[C@@H]3C)cc2cc1C(=O)Nc1cnn2cccnc12` (single isomer, unassigned) [Example 63, 6-methoxy-2-((1S,2S,4R*)-2-methyl-4-(N-methylacetamido)cyclohexyl)-N-(pyrazolo[1,5-a]pyrimidin-3-yl)-2H-indazole-5-carboxamide], the IC50 is 46.8 nM in assay [1] and 338 nM in assay [2].
Take `COc1cc2nn(C3CCC4(CC3)COC(=O)N4C)cc2cc1C(=O)Nc1cnc2cccnn12` (single isomer, unassigned) [Example 74, N-(Imidazo[1,2-b]pyridazin-3-yl)-6-methoxy-2-(1-methyl-2-oxo-3-oxa-1-azaspiro[4.5]decan-8-yl)-2H-indazole-5-carboxamide]: the IC50 in assay [1] stood at 2.7 nM; in assay [2] it was 79 nM.
With `COc1cc2nn(C3CCC4(CC3)COC(=O)N4C)cc2cc1C(=O)Nc1cnc2cccnn12` (single isomer, unassigned) [Example 75, N-(Imidazo[1,2-b]pyridazin-3-yl)-6-methoxy-2-(1-methyl-2-oxo-3-oxa-1-azaspiro[4.5]decan-8-yl)-2H-indazole-5-carboxamide], the IC50 stood at 0.3 nM in assay [1] and 12 nM in assay [2].

Values taken from patent US11866405B2, “Substituted indazoles as IRAK4 inhibitors” (AstraZeneca AB, priority 2020, dated 2024).
